Assay results reported in patent US20250170130A1, “MODULATORS OF MYC FAMILY PROTO-ONCOGENE PROTEIN” (Nalo Therapeutics, priority 2022, published 2025).
Like-named read-outs stand apart in the source and are kept apart here.

Tests used:
MycN = biological target: T1, MycN (Homo sapiens, UniProt P04198); test: Degradation of MycN protein in SK-N-BE(2) cells, JESS/Western blot of lysates; assay type: cell-based; conditions: SKNBE2, 24 h; for Dmax at 0.5 µM: read-out: % Degradation of MycN (SKNBE2) 24 h, 0.5 μM; for Dmax at 1 µM: read-out: % Degradation of MycN (SKNBE2) 24 h, 1 μM; for Dmax at 3 µM: read-out: % Degradation of MycN (SKNBE2) 24 h, 3 μM; for Dmax at 6 µM: read-out: % Degradation of MycN (SKNBE2) 24 h, 6 μM
T1 construct: endogenous in cells; host or cells: SK-N-BE(2)
T1 sequence (P04198 1-464): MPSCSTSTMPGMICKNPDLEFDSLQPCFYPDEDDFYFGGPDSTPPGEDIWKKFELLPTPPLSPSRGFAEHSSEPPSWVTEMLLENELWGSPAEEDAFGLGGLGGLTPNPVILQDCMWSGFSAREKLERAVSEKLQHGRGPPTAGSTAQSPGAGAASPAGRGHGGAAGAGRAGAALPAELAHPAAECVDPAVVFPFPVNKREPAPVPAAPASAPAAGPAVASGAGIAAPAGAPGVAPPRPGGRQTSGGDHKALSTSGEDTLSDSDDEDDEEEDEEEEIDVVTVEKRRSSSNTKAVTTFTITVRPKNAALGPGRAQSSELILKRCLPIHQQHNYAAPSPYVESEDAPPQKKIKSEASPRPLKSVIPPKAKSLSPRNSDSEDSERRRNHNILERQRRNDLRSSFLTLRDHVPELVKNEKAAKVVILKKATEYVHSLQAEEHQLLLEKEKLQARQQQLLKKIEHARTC
How it was run: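 SK-N-BE(2) adherent cells (5E5 per well of a 6 well dish) were grown 24 hrs, then exposed to compounds diluted 1 in 20 in media, with DMSO controls, for 24 hrs. Cells were scraped, pelleted, PBS washed and lysed in RIPA buffer cocktail; after BCA protein quantitation, n-myc was detected by chemiluminescence on JESS/Western blot with tubulin and GAPDH loading controls read in the near infra red channel.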

MycC = biological target: T2, MycC (Homo sapiens, UniProt P01106); test: Degradation of MycC protein in L363 cells, JESS/Western blot of lysates; assay type: cell-based; conditions: L-363, 24 h; for Dmax at 3 µM: read-out: % Degradation of MycC (L-363) 24 h, 3 μM; for Dmax at 6 µM: read-out: % Degradation of MycC (L-363) 24 h, 6 μM; for Dmax at 1 µM: read-out: % Degradation of MycC (L-363) 24 h, 1 μM; for Dmax at 0.5 µM: read-out: % Degradation of MycC (L-363) 24 h, 0.5 μM
T2 construct: endogenous in cells; host or cells: L363
How it was run: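 L363 suspension cells were seeded at 1E6 cells per well and exposed to compound (stock 10 mM in DMSO) for 24 hrs. Cells were collected, spun down, rinsed with PBS, lysed in RIPA buffer cocktail on ice, clarified and kept at −80 degrees. Lysate protein was quantified by BCA, and c-myc was measured on JESS by chemiluminescence with tubulin and GAPDH loading controls in the NIR channel.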

T2 sequence (P01106 whole entry): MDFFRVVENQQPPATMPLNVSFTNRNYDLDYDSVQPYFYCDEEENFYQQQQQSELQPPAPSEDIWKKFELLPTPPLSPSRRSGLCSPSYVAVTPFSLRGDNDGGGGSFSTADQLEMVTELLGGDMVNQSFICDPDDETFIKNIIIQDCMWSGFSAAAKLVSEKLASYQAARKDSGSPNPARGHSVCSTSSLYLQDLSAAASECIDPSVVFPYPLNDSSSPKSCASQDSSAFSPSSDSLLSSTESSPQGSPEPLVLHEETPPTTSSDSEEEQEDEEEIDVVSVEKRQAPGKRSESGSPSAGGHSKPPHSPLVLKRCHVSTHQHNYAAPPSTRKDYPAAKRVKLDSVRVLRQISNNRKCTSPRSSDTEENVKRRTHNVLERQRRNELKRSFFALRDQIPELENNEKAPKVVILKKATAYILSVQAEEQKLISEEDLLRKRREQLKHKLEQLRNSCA

SMILES	Dmax at 0.5 µM (MycN; SKNBE2 cells, 24 h, 0.5 μM)	Dmax at 1 µM (MycN; SKNBE2 cells, 24 h, 1 μM)	Dmax at 3 µM (MycN; SKNBE2 cells, 24 h, 3 μM)	Dmax at 6 µM (MycN; SKNBE2 cells, 24 h, 6 μM)	Dmax at 3 µM (MycC; L-363 cells, 24 h, 3 μM)	Dmax at 6 µM (MycC; L-363 cells, 24 h, 6 μM)	Dmax at 1 µM (MycC; L-363 cells, 24 h, 1 μM)	Dmax at 0.5 µM (MycC; L-363 cells, 24 h, 0.5 μM)	Dmax at 0.5 µM (MycN)	Dmax at 1 µM (MycN)	Dmax at 3 µM (MycN)	Dmax at 6 µM (MycN)	Dmax at 1 µM (MycC)	Dmax at 3 µM (MycC)	Dmax at 6 µM (MycC)	Dmax at 0.5 µM (MycC)
NCC1CN(c2nccc(Nc3cc(C4CCCC4)[nH]n3)n2)CC(F)(F)C1 (stereo not drawn) [Compound 115, 2-[5-(Aminomethyl)-3,3-difluoro-1-piperidyl]-N-(5-cyclopentyl-1H-pyrazol-3-yl)pyrimidin-4-amine]	20 to 49%	50 to 79%	80 to 100%	80 to 100%	80 to 100%	80 to 100%	–	–	–	–	–	–	–	–	–	–
NC[C@@H]1CN(c2nccc(Nc3cc(C4CCCC4)[nH]n3)n2)CCO1 [Compound 116, 2-[(2R)-2-(Aminomethyl)morpholin-4-yl]-N-(5-cyclopentyl-1H-pyrazol-3-yl)pyrimidin-4-amine]	< 20%	< 20%	80 to 100%	80 to 100%	80 to 100%	80 to 100%	< 20%	–	–	–	–	–	–	–	–	–
CNC[C@@H]1CN(c2nccc(Nc3cc(C4CCCC4)[nH]n3)n2)CCO1 [Compound 118, N-(5-Cyclopentyl-1H-pyrazol-3-yl)-2-[(2R)-2-(methylaminomethyl)morpholin-4-yl]pyrimidin-4-amine]	< 20%	20 to 49%	< 20%	80 to 100%	< 20%	–	< 20%	–	–	–	–	–	–	–	–	–
N#CC1(CN)CCCN(c2nccc(Nc3cc(C4CC4)[nH]n3)n2)C1 (stereo not drawn) [Compound 119, 3-(Aminomethyl)-1-[4-[(5-cyclopropyl-1H-pyrazol-3-yl)amino]pyrimidin-2-yl]piperidine-3-carbonitrile]	–	–	–	–	–	–	–	–	50 to 79%	50 to 79%	80 to 100%	80 to 100%	50 to 79%	80 to 100%	80 to 100%	–
NCC1CN(c2nccc(Nc3cc(C4CC4)[nH]n3)n2)CC(F)(F)C1 (stereo not drawn) [Compound 121, 2-[5-(Aminomethyl)-3,3-difluoro-1-piperidyl]-N-(5-cyclopropyl-1H-pyrazol-3-yl)pyrimidin-4-amine]	–	–	–	–	–	–	–	–	50 to 79%	50 to 79%	80 to 100%	80 to 100%	80 to 100%	80 to 100%	80 to 100%	–
NCC1CN(c2nccc(Nc3cc(C4CC4)[nH]n3)n2)CC1(F)F (stereo not drawn) [Compound 124, 2-[4-(Aminomethyl)-3,3-difluoro-pyrrolidin-1-yl]-N-(5-cyclopropyl-1H-pyrazol-3-yl)pyrimidin-4-amine]	20 to 49%	20 to 49%	20 to 49%	80 to 100%	–	80 to 100%	< 20%	–	–	–	–	–	–	–	–	–
NCC1CN(c2nccc(Nc3cc(C4CCCC4)[nH]n3)n2)CC1(F)F (stereo not drawn) [Compound 125, 2-[4-(Aminomethyl)-3,3-difluoro-pyrrolidin-1-yl]-N-(5-cyclopentyl-1H-pyrazol-3-yl)pyrimidin-4-amine]	20 to 49%	20 to 49%	50 to 79%	80 to 100%	–	80 to 100%	20 to 49%	20 to 49%	–	–	–	–	–	–	–	–
O=C1c2ccccc2C(=O)N1CC12CC(CN(c3nccc(Nc4cc(C5CC5)[nH]n4)n3)C1)C2 [Compound 126, 2-[[3-[4-[(5-Cyclopropyl-1H-pyrazol-3-yl)amino]pyrimidin-2-yl]-3-azabicyclo[3.1.1]heptan-1-yl]methyl]isoindoline-1,3-dione]	80 to 100%	80 to 100%	80 to 100%	80 to 100%	80 to 100%	80 to 100%	80 to 100%	80 to 100%	–	–	–	–	–	–	–	–
O=C1c2ccccc2C(=O)N1CC12CC(CN(c3nccc(Nc4cc(C5CCCC5)[nH]n4)n3)C1)C2 [Compound 127, 2-[[3-[4-[(5-Cyclopentyl-1H-pyrazol-3-yl)amino]pyrimidin-2-yl]-3-azabicyclo[3.1.1]heptan-1-yl]methyl]isoindoline-1,3-dione]	–	–	–	–	–	–	–	–	50 to 79%	80 to 100%	80 to 100%	80 to 100%	80 to 100%	80 to 100%	80 to 100%	< 20%
COC1CN(CC23CC(C2)N(c2nccc(Nc4cc(C5CCCC5)[nH]n4)n2)C3)C1 [Compound 177, N-(5-Cyclopentyl-1H-pyrazol-3-yl)-2-[4-[(3-methoxyazetidin-1-yl)methyl]-2-azabicyclo[2.1.1]hexan-2-yl]pyrimidin-4-amine]	20 to 49%	< 20%	50 to 79%	50 to 79%	20 to 49%	80 to 100%	20 to 49%	< 20%	–	–	–	–	–	–	–	–
CNC[C@H]1CN(c2nccc(Nc3cc(C4CCCC4)[nH]n3)n2)C[C@H]1F [Compound 181]	< 20%	< 20%	20 to 49%	80 to 100%	–	80 to 100%	< 20%	–	–	–	–	–	–	–	–	–
CNCC12CC(C1)N(c1ncc(C)c(Nc3cc(C4CCCC4)[nH]n3)n1)C2 [Compound 182, N-(5-Cyclopentyl-1H-pyrazol-3-yl)-5-methyl-2-[4-(methylaminomethyl)-2-azabicyclo[2.1.1]hexan-2-yl]pyrimidin-4-amine]	20 to 49%	20 to 49%	80 to 100%	80 to 100%	–	80 to 100%	–	–	–	–	–	–	–	–	–	–

The next lines start with results.

Dmax at 0.5 µM (MycN; SKNBE2 cells, 24 h, 0.5 μM)	Dmax at 1 µM (MycN; SKNBE2 cells, 24 h, 1 μM)	Dmax at 3 µM (MycN; SKNBE2 cells, 24 h, 3 μM)	Dmax at 6 µM (MycN; SKNBE2 cells, 24 h, 6 μM)	Dmax at 3 µM (MycC; L-363 cells, 24 h, 3 μM)	Dmax at 6 µM (MycC; L-363 cells, 24 h, 6 μM)	Dmax at 1 µM (MycC; L-363 cells, 24 h, 1 μM)	Dmax at 0.5 µM (MycC; L-363 cells, 24 h, 0.5 μM)	SMILES	Dmax at 0.5 µM (MycN)	Dmax at 1 µM (MycN)	Dmax at 3 µM (MycN)	Dmax at 6 µM (MycN)	Dmax at 1 µM (MycC)	Dmax at 3 µM (MycC)	Dmax at 6 µM (MycC)	Dmax at 0.5 µM (MycC)
20 to 49%	20 to 49%	20 to 49%	80 to 100%	80 to 100%	80 to 100%	50 to 79%	20 to 49%	NC[C@@H]1CN(c2nccc(Nc3cc(C4CC4)[nH]n3)n2)C[C@@H]1F [Compound 122-1, 2-[(3R,4R)-3-(Aminomethyl)-4-fluoro-pyrrolidin-1-yl]-N-(5-cyclopropyl-1H-pyrazol-3-yl)pyrimidin-4-amine]	–	–	–	–	–	–	–	–
–	< 20%	50 to 79%	80 to 100%	80 to 100%	80 to 100%	50 to 79%	20 to 49%	NC[C@H]1CN(c2nccc(Nc3cc(C4CC4)[nH]n3)n2)C[C@H]1F [Compound 122-2, 2-[(3S,4S)-3-(Aminomethyl)-4-fluoro-pyrrolidin-1-yl]-N-(5-cyclopropyl-1H-pyrazol-3-yl)pyrimidin-4-amine]	–	–	–	–	–	–	–	–
–	< 20%	50 to 79%	80 to 100%	80 to 100%	80 to 100%	20 to 49%	< 20%	NC[C@@H]1CN(c2nccc(Nc3cc(C4CCCC4)[nH]n3)n2)C[C@@H]1F [Compound 123-1, 2-[(3R,4R)-3-(Aminomethyl)-4-fluoro-pyrrolidin-1-yl]-N-(5-cyclopentyl-1H-pyrazol-3-yl)pyrimidin-4-amine]	–	–	–	–	–	–	–	–
20 to 49%	20 to 49%	50 to 79%	80 to 100%	80 to 100%	80 to 100%	50 to 79%	20 to 49%	NC[C@H]1CN(c2nccc(Nc3cc(C4CCCC4)[nH]n3)n2)C[C@H]1F [Compound 123-2, 2-[(3S,4S)-3-(Aminomethyl)-4-fluoro-pyrrolidin-1-yl]-N-(5-cyclopentyl-1H-pyrazol-3-yl)pyrimidin-4-amine]	–	–	–	–	–	–	–	–
